Assay results reported in ChEMBL document CHEMBL5252509, “In depth analysis of kinase cross screening data to identify chemical starting points for inhibition of the Nek family of kinases” (Medchemcomm, 2018).

Legend:
[1] = target: T1, Serine/threonine-protein kinase Nek2 (Homo sapiens) (UniProt P51955); assay: Inhibition of NEK2 (unknown origin) at 1 uM relative to control
T1 sequence (whole entry): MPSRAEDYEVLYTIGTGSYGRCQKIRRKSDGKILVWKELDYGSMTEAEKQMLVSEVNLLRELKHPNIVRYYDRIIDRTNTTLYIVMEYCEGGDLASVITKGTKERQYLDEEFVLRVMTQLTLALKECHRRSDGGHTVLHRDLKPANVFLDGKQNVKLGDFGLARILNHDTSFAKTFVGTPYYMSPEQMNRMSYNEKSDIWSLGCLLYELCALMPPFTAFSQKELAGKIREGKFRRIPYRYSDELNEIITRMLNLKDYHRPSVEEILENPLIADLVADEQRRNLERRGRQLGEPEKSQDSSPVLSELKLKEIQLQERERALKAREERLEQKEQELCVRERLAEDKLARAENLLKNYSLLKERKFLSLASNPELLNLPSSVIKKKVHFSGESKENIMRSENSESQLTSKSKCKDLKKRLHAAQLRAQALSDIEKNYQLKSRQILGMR

[2] = target: Serine/threonine-protein kinase Nek6 (Homo sapiens) (UniProt Q9HC98); assay: Inhibition of NEK6 (unknown origin) at 1 uM relative to control
[3] = target: Serine/threonine-protein kinase Nek7 (Homo sapiens) (UniProt Q8TDX7); assay: Inhibition of NEK7 (unknown origin) at 1 uM relative to control
[4] = target: T2, Serine/threonine-protein kinase Nek10 (Homo sapiens) (UniProt Q6ZWH5); assay: Inhibition of NEK10 (unknown origin) at 1 uM relative to control
T2 sequence (whole entry): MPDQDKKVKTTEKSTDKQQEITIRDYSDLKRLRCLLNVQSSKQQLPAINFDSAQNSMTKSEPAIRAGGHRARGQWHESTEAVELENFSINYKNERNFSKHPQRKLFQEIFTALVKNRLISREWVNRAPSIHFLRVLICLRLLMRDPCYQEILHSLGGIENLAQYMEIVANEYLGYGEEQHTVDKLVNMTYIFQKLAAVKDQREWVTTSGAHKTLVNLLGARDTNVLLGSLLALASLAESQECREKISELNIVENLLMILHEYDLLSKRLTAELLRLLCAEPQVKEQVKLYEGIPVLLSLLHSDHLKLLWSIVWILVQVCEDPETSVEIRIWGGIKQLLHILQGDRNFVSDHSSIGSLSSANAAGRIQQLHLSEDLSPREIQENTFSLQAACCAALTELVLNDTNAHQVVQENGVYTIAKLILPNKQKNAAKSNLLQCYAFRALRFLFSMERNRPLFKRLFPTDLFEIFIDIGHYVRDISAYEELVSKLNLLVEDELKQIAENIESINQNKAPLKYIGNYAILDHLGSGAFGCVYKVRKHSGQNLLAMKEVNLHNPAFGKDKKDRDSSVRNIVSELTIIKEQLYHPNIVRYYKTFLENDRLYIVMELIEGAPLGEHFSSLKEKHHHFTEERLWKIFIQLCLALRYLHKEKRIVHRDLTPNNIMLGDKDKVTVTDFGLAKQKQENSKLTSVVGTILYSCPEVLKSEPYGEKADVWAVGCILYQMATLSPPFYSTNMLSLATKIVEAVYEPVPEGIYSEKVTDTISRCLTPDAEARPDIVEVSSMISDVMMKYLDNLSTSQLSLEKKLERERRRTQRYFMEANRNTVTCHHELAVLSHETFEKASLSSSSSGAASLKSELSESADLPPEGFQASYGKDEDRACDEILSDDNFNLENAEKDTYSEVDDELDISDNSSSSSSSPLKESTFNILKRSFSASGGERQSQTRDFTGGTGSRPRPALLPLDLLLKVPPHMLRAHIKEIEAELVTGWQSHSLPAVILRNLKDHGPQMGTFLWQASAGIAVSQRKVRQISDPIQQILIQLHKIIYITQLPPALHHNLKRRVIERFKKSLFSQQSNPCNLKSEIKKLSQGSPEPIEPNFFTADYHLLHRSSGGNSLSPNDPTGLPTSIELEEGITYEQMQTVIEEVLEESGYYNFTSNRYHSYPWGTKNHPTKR

[5] = target: T1, Serine/threonine-protein kinase Nek2 (Homo sapiens); assay: Inhibition of NEK2 (unknown origin) at 10 uM relative to control
[6] = target: T3, Serine/threonine-protein kinase Nek3 (Homo sapiens) (UniProt P51956); assay: Inhibition of NEK3 (unknown origin) at 10 uM relative to control
T3 sequence (whole entry): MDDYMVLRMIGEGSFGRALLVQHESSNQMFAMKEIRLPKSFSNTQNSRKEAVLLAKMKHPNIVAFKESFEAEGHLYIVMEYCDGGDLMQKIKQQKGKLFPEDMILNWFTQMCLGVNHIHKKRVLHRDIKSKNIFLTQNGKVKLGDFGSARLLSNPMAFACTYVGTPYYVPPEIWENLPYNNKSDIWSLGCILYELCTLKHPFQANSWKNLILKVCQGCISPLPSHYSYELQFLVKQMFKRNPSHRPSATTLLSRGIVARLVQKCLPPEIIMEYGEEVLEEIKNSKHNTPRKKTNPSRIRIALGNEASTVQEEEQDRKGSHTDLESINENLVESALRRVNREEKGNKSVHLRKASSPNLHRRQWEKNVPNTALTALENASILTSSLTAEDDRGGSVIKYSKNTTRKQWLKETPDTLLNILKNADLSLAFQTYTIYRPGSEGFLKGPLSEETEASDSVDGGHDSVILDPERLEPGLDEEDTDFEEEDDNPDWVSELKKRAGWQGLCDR

Sequence of Serine/threonine-protein kinase Nek6 (Homo sapiens) (Q9HC98 whole entry): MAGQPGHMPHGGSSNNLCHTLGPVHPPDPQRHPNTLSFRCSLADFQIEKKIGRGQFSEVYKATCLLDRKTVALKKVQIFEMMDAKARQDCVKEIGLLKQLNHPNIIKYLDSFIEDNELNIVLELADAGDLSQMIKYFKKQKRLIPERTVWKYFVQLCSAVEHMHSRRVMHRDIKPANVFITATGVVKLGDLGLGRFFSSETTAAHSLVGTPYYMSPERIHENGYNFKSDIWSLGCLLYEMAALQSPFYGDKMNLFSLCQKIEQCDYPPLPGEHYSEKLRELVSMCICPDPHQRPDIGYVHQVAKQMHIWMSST
Sequence of Serine/threonine-protein kinase Nek7 (Homo sapiens) (Q8TDX7 whole entry, looked up): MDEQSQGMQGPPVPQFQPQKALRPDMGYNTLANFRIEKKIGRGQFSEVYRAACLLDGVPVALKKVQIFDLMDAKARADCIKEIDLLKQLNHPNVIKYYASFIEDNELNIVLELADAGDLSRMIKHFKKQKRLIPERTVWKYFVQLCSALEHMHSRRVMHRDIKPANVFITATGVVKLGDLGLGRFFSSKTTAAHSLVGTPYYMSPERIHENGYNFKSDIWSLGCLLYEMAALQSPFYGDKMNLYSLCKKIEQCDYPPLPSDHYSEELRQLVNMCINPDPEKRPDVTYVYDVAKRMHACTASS

| Compound | inhibition [1] | inhibition [2] | inhibition [3] | inhibition [4] | % control [5] | % control [6] |
| --- | --- | --- | --- | --- | --- | --- |
| COc1cccc(C2=C(Nc3cccc(Cl)c3)C(=O)NC2=O)c1 | 13% | 0% | 5% | 73% | – | – |
| Cn1cc(-c2ccc3c(c2)CCN3C(=O)Cc2cc(F)cc(C(F)(F)F)c2)c2c(N)ncnc21 | 18% | 6% | 0% | 6% | – | – |
| Cn1cc(-c2ccc3c(c2)CCN3C(=O)Cc2cccc(C(F)(F)F)c2)c2c(N)ncnc21 | 15% | 0% | 11% | 18% | – | – |
| Fc1cc(-c2cc[nH]/c(=N/c3ccc(-n4cnc(N5CCOCC5)n4)cc3)n2)cc(N2CCOCC2)c1 | – | – | – | – | 94% | 0.8% |
| COc1ccc(Nc2ncc(C#N)c(Nc3ccccc3C(N)=O)n2)cc1N1CCN(C)CC1 | 0.4% | 0.1% | 2.6% | 5.9% | – | – |
| Nc1nccc2scc(-c3ccc4c(c3)CCN4C(=O)Cc3cc(F)ccc3F)c12 | 7% | 0% | 0% | 12% | – | – |
| CN(C)C/C=C/C(=O)Nc1ccc(C(=O)Nc2cccc(Nc3nccc(-c4cccnc4)n3)c2)cc1 | – | – | – | – | 1.1% | 17% |
| Nc1ncc(-c2cn[nH]c2)c2scc(-c3ccc4c(c3)CCN4C(=O)Cc3ccccc3)c12 | 85% | 3% | 0% | 22% | – | – |
| COc1cccc(C2=C(Nc3ccc(Cl)c(C(=O)O)c3)C(=O)NC2=O)c1 | 0% | 0% | 0% | 73% | – | – |
| c1ccc(-c2ccnc3[nH]ccc23)cc1 | 74% | 0% | 0% | 30% | – | – |
| Cn1cc(-c2ccc3c(c2)CCN3C(=O)Cc2ccccc2Cl)c2c(N)ncnc21 | 79% | 3% | 17% | 0% | – | – |
| Nc1nccc2scc(-c3ccc4c(c3)CCN4C(=O)Cc3ccccc3)c12 | 4% | 0% | 0% | 9% | – | – |
| O=c1[nH]ccc2nc(N[C@@H]3CCCNC3)nc(Nc3ccc(S(=O)(=O)N4CCOCC4)cc3)c12 | 20% | 54% | 65% | 4.4% | – | – |
| COc1cc(Nc2ncc3c(C)nc(-c4cc5ccccc5[nH]4)n3n2)cc(OC)c1OC | 70% | 70% | 70% | 0% | – | – |
| CC(C)c1nc(-c2cccc(NS(=O)(=O)c3c(F)cccc3F)c2F)c(-c2ccnc(Nc3ccc(N4CCOCC4)nc3)n2)s1 | 0.9% | 0.9% | 7.1% | 100% | – | – |
| COc1cccc(CC(=O)N2CCc3cc(-c4cn(C)c5ncnc(N)c45)ccc32)c1 | 74% | 18% | 11% | 7% | – | – |
| COc1ccc(C2=C(Nc3cccc(C(=O)O)c3)C(=O)NC2=O)cc1 | 10% | 13% | 28% | 2% | – | – |
| Cc1ccc(CC(=O)N2CCc3cc(-c4cn(C)c5ncnc(N)c45)ccc32)cc1 | 96.9% | 19% | 0% | 0% | – | – |
| Nc1ncc(-c2cccnc2)c2scc(-c3ccc4c(c3)CCN4C(=O)Cc3ccccc3)c12 | 70% | 8% | 19% | 14% | – | – |

| Compound | inhibition [1] | inhibition [2] | inhibition [3] | inhibition [4] | % control [5] | % control [6] |
| --- | --- | --- | --- | --- | --- | --- |
| CC(C)Oc1ccc2c(-c3ccnc(Nc4ccc(N5CCN(C)CC5)cc4)n3)cnn2n1 | 6.7% | 6.3% | 7.4% | 2.4% | – | – |
| O=C1NC(=O)C(c2ccccc2Cl)=C1Nc1cccc(Cl)c1 | 10% | 1% | 16% | 51% | – | – |
| Cn1cc(-c2ccc3c(c2)CCN3C(=O)Cc2cccc(Cl)c2)c2c(N)ncnc21 | 66% | 11% | 0% | 18% | – | – |
| NCCNS(=O)(=O)c1ccc(-c2ccnc3[nH]ccc23)cc1 | 0% | 4% | 0% | 69% | – | – |
| O=S(=O)(c1ccc(-c2ccnc3[nH]ccc23)cc1)N1CCCC1 | 16% | 0% | 20% | 15% | – | – |
| COc1cccc(C2=C(Nc3cccc(O)c3)C(=O)NC2=O)c1 | 0% | 0% | 7% | 67% | – | – |
| CS(=O)(=O)Nc1ccc(-c2ccnc3[nH]ccc23)cc1 | 0% | 0% | 10% | 71% | – | – |
| CN(C)C/C=C/C(=O)Nc1cccc(C(=O)Nc2ccc(Nc3nccc(-c4c(-c5ccccc5)nn5ccccc45)n3)cc2)c1 | – | – | – | – | 93% | 99% |
| CN(C)C/C=C/C(=O)Nc1cccc(C(=O)Nc2ccc(Nc3nccc(-c4cccnc4)n3)cc2)c1 | – | – | – | – | 86% | 6.8% |
| CC(C)c1nc(-c2cccc(NS(=O)(=O)c3ccccc3)c2)c(-c2ccnc(Nc3ccc4c(c3)CN(C)CC4)n2)s1 | 66% | 100% | 100% | 100% | – | – |
| Cc1ccccc1CC(=O)N1CCc2cc(-c3cn(C)c4ncnc(N)c34)ccc21 | 97% | 0% | 0% | 0% | – | – |
| O=C1NC(=O)/C(=C/c2ccc3nccc(-c4ccncc4)c3c2)S1 | – | – | – | – | 64% | 77% |
| CN(C)C/C=C/C(=O)Nc1cccc(C(=O)Nc2ccc(Nc3nccc(/C(C#N)=C4\Nc5ccccc5S4)n3)cc2)c1 | – | – | – | – | 99% | 100% |
| Cn1cc(-c2ccc3c(c2)CCN3C(=O)Cc2cccc(F)c2)c2c(N)ncnc21 | 73% | 0% | 0% | 22% | – | – |
| Cn1cc(-c2ccc3c(c2)CCN3C(=O)Cc2cc(F)cc(F)c2F)c2c(N)ncnc21 | 84% | 18% | 0% | 10% | – | – |
| Cc1cc(NC(=O)c2cccc(NC(=O)/C=C/CN(C)C)c2)ccc1Nc1nccc(-c2cccnc2)n1 | – | – | – | – | 100% | 73% |
| Cn1cc(-c2cnc(N)c3c(-c4ccc5c(c4)CCN5C(=O)Cc4ccccc4)csc23)cn1 | 28% | 0% | 0% | 22% | – | – |
| CN(C)CCNS(=O)(=O)c1ccc(-c2ccnc3[nH]ccc23)cc1 | 0% | 1% | 0% | 17% | – | – |
